We go through three compounds from US10975049B2, “Nicotinyl alcohol ether derivative, preparation method therefor, and pharmaceutical composition and uses thereof” (Institute of Materia Medica, Chinese Academy of Medical …, priority 2016, dated 2021).

The test system of one data set is mouse colon cancer MC38. Put plainly: Subcutaneous xenograft model of mouse colon cancer MC38. Type of data set: in vivo, C57BL/6 or Bablc mice. The settings on record: result in words. The procedure: (§1) The method in subcutaneous xenograft tumor was as follows. The cultured specific tumor cells were digested and collected by centrifugation, and washed with sterile physiological saline for two times and then counted. The cell concentration was adjusted to 5×10^6/ml by physiological saline, and 0.2 ml of cell suspension was inoculated to the right armpit of C57BL/6 or Bablc mice. After inoculation, the animals were randomly divided into two groups in next day. Each group had 6-7 mice. After weighing, the animals were dosed once each day to monitor tumor size. When the tumor size reached to a certain size, the mice was weighed and blood was collected from mice orbit and then the mice were killed by removing the neck. The tumor tissue, thymus tissue and spleen tissue were collected and weighed respectively. Finally, the tumor growth inhibition rate was calculated, and the tumor growth inhibition rate was used to evaluate the level of anti-tumor effect.

The subject of data set [1] is high metastatic melanoma B16F10. Description: Lung metastasis model of high metastatic melanoma B16F10. The format is in vivo, C57BL/6 mice. Particulars: for Tumor number X ± SD: lung; for TGI % (tumor growth inhibition rate): tumor number. As for the experimental part:
The method in B16F10 lung metastasis model was as follows. The cultured B16F10 tumor cells were digested and centrifuged and washed for two times with sterile physiological saline and then counted. And the cell concentration was adjusted to 2.5×10^6/ml by physiological saline. 0.2 ml of cells were injected into the C57BL/6 mice through the tail vein, and the tumor cells will gather in the lung of the mice. After inoculation, the animals were randomly divided into two groups in next day. Each group had 6-7 mice. After weighing, the animals were dosed once each day. After 3 weeks, the mice were weighed and killed, the lung tissue was collected and weighed, and the number of lung tumors was counted after being fixed by the Bouin's Fluid. Finally, the tumor growth inhibition rate was calculated, and the tumor growth inhibition rate was used to evaluate the level of anti-tumor effect.
(§2) In the study of the mechanism of the above models, the method of flow cytometry was adopted in measuring the total cell proportion of T cells of various types. The specific steps were as follows. The samples were treated at first. For blood tissue, the orbital blood was taken. The red cell lysate was used to remove the red blood cells, and then the PBS buffer was used for wash. After being washed, the cells were collected. For the tumor and spleen, the tissues were grinded with a homogenizer, and then diluted with PBS buffer, then filtered by 300 meshes of screen. After the number of cells was counted for each sample, 1×10^6 cells were added into EP tube and stained for flow antibody. After incubation for 1 h on ice, each sample was washed 2 times with PBS buffer. The cell population was analyzed by VERSE flow instrument of BD Company. The total number of cells in tumor tissue was 1×10^5 and the total number of cells in blood and spleen tissues was 1×10^4. The ratio of T cells to total number of cells was analyzed after flow cytometry.

For the next data set, the system named is mouse breast cancer EMT6. Description: Subcutaneous xenograft model of mouse breast cancer EMT6. The format is in vivo, C57BL/6 or Bablc mice. The procedure: as §1
For another data set, the system named is Lewis lung cancer. Put plainly: Mouse Lewis lung cancer hydrothorax model. The format is in vivo, C57BL/6 mice. Particulars: 10 mg. The procedure:
The method in Lewis lung cancer hydrothorax model was as follows: The subcutaneous xenograft tumor of Lewis lung cancer was homogenized and washed for two times with sterile physiological saline, and the cell concentration was adjusted to 2.5×10^5/ml by physiological saline. 0.2 ml of cells were injected into the thoracic cavity of C57BL/6 mice. After inoculation, the animals were randomly divided into two groups in next day. Each group had 6-7 mice. After weighing, the animals were dosed once each day. Animals were sacrificed when the weight of the animals in the control group suddenly dropped. The liquid in thoracic cavity was extracted with syringe and the volume of fluid was recorded.

Data set [2] has as its system high metastatic melanoma B16F10. Put plainly: Subcutaneous xenograft model of high metastatic melanoma B16F10. The format is in vivo, C57BL/6 or Bablc mice. Particulars: for TGI % (tumor growth inhibition rate): tumor weight. As for the experimental part: as §1, §2
Data set [3] deals with interaction between PD-1 and PD-L1 (Homo sapiens (Human), UniProt Q9NZQ7). Put plainly: Cisbio PD-1/PD-L1 binding assay kit (HTRF). Particulars: molecular level, read-out: IC50 (M), inhibitory activity on the interaction between PD-1 and PD-L1. The text has this: 1. In vitro activity evaluation: Cisbio PD-1/PD-L1 binding assay kit was applied for the detection method of in vitro enzymology level.
interaction between PD-1 and PD-L1, sequence (Q9NZQ7 19-238): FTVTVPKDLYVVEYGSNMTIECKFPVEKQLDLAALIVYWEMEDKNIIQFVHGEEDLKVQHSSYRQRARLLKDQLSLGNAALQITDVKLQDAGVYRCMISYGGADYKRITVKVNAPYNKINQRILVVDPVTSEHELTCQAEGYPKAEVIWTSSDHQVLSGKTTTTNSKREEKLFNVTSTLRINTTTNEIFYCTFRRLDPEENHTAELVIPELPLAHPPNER
Screening Principles and Methods of PD-1/PD-L1 Small Molecule Inhibitors
1) Principle: PD-1 protein is with HIS tag, and PD-1 ligand PD-L1 is with hFc tag. Eu labeled anti-hFc antibody and XL665 labeled anti-HIS antibody are combined with the above two label proteins respectively. After laser excitation, energy can be transferred from donor Eu to receptor XL665, allowing XL665 to glow.
2) Experimental method: The specific method can be referred to Cisbio's PD-1/PD-L1 Kit (item 64CUS000C-2). Reagents should be dispensed in the following order. For 384-well white ELISA plate, 2 μl of diluent or target compound diluted with diluent was added to each well, and then 4 μl of PD-1 protein and 4 μl of PD-L1 protein were added per well, incubated for 15 min at room temperature; and 10 μl of a mixture of anti-Tag1-Eu3^+ and anti-Tag2-XL665 was added per well and incubated for 1 h to 4 h at room temperature and the fluorescence signals at 665 nm and 620 nm were measured with an Envison instrument. HTRF rate=(665 nm/620 nm)*10^4. 8-10 concentrations were detected for each compound and IC50 was calculated by Graphpad software.

Counter-ions that a name gives are not always drawn.

A word on the IC50: it is the concentration that inhibits the measured activity by half.

`O=C([O-])[C@H](CO)NCc1cc(Cl)c(OCc2cccc(-c3ccccc3)c2Br)cc1OCc1cccnc1.[Na+]` [Example 4 sodium salt, (S)-Sodium N-(4-(2-bromo-3-phenylbenzyloxy)-5-chloro-2-(pyridin-3-yl-methyleneoxy)benzyl) serinate]: in the data set with mouse colon cancer MC38, the “antitumor effect in combination with Cyclophosphamide (CTX)” value is listed as “synergistic antitumor effect” and the “inhibition effect on subcutaneous xenograft of MC38” value is “significant inhibition effect”. The “number of lung metastases” value in data set [1] (15 mg/kg dose, result in words) is given as “significantly inhibit”. In data set [1] (15 mg/kg), the “Body weight (g) Mean ± SD Begin” value came out at 20.1 ± 0.9 g, the “Body weight (g) Mean ± SD End” value is on record as 21.5 ± 1.2 g, the “Tumor number X ± SD” value turned out to be 12 ± 3 and the “TGI % (tumor growth inhibition rate)” value is 42.3%. Further, in data set [1] (45 mg/kg), the “Body weight (g) Mean ± SD Begin” value came to 20.3 ± 0.6 g, the “Body weight (g) Mean ± SD End” value is 21.4 ± 0.3 g, the “Tumor number X ± SD” value was 19 ± 15 and the “TGI % (tumor growth inhibition rate)” value is on record as 9.5%. For the same compound, in data set [1] (15 mg), the “CD3+ percentage of T lymphocyte in mouse blood” value turned out to be 29.0 ± 3.7%, the “CD4+ percentage of T lymphocyte in mouse blood” value is 17.8 ± 2.4% and the “CD8+ percentage of T lymphocyte in mouse blood” value came out at 9.6 ± 0.8%. In data set [1] (45 mg), the “CD3+ percentage of T lymphocyte in mouse blood” value worked out at 23.2 ± 3.6%, the “CD4+ percentage of T lymphocyte in mouse blood” value is reported as 14.7 ± 2.5% and the “CD8+ percentage of T lymphocyte in mouse blood” value is listed as 7.6 ± 1.3%. In addition, in the data set on mouse breast cancer EMT6 (1.5 mg/kg), the “TGI % (tumor growth inhibition rate)” value was 13.1%, the “Tumorweight(g) X ± SD” value is on record as 1.5 ± 0.61 g, the “Body weight (g) Mean ± SD Begin” value is recorded as 18.4 ± 0.9 g and the “Body weight (g) Mean ± SD End” value is on record as 22.0 ± 1.6 g. In the data set with mouse breast cancer EMT6 (5 mg/kg), the “TGI % (tumor growth inhibition rate)” value is reported as 20.2%, the “Tumorweight(g) X ± SD” value is on record as 1.37 ± 0.23 g, the “Body weight (g) Mean ± SD Begin” value was found to be 18.4 ± 0.4 g and the “Body weight (g) Mean ± SD End” value stood at 21.0 ± 1.6 g. In the data set with mouse breast cancer EMT6 (10 mg/kg), the “TGI % (tumor growth inhibition rate)” value amounted to 22.3%, the “Tumorweight(g) X ± SD” value was found to be 1.34 ± 0.34 g, the “Body weight (g) Mean ± SD Begin” value worked out at 18.4 ± 0.6 g and the “Body weight (g) Mean ± SD End” value was determined as 21.6 ± 1.3 g. In the data set on mouse breast cancer EMT6 (15 mg/kg), the “TGI % (tumor growth inhibition rate)” value is 14.7%, the “Tumorweight(g) X ± SD” value is 1.47 ± 0.65 g, the “Body weight (g) Mean ± SD Begin” value was 18.5 ± 0.4 g and the “Body weight (g) Mean ± SD End” value worked out at 22.0 ± 1.1 g. Besides, in the data set on mouse breast cancer EMT6 (dose of 10 mg), the “inhibition effect on mouse breast cancer EMT6” value was 20%. The “inhibition effect on mouse breast cancer EMT6” value with mouse breast cancer EMT6 (dose of 15 mg) was found to be 22%. In addition, in the data set on Lewis lung cancer, the hydrothorax incidence rate is given as 33% and the “hydrothorax volume (mean)” value was 0.2 mL. Besides, the hydrothorax incidence rate in the data set on Lewis lung cancer (listed as sodium salt of Example 4 compound) was found to be 33%. Further, in data set [2] (15 mg/kg), the “Tumorweight(g) X ± SD” value is listed as 0.93 ± 0.89 g, the “Body weight (g) Mean ± SD Begin” value came out at 20.3 ± 0.4 g, the “Body weight (g) Mean ± SD End” value amounted to 21.8 ± 2.1 g and the “TGI % (tumor growth inhibition rate)” value was found to be 64.11%. For the same compound, in data set [2] (45 mg/kg), the “Tumorweight(g) X ± SD” value was determined as 2.57 ± 0.85 g, the “Body weight (g) Mean ± SD Begin” value came to 20.4 ± 0.9 g, the “Body weight (g) Mean ± SD End” value turned out to be 23.8 ± 1.4 g and the “TGI % (tumor growth inhibition rate)” value is 0.23%. In addition, in data set [2] (result in words), the “proportion of lymphocytes in the spleen samples” value was “increase” and the “proportion of tumor-infiltrating lymphocytes” value was “increase”. In data set [2] (spleen, 15 mg), the “CD4+ (%) T lymphocytes in spleen” value amounted to 27.0 ± 1.8% and the “CD8+ (%) T lymphocytes in spleen” value was determined as 13.6 ± 1.8%. Also, in data set [2] (tumor, 15 mg), the “CD3+ (%) tumor-infiltrating T lymphocytes” value is reported as 13.3 ± 6.9%, the “CD4+ (%) tumor-infiltrating T lymphocytes” value was found to be 7.2 ± 3.4% and the “CD8+ (%) tumor-infiltrating T lymphocytes” value is given as 3.9 ± 1.4%.

Turning to `CC[C@H](C)[C@H](NCc1cc(Cl)c(OCc2cccc(-c3ccccc3)c2Br)cc1OCc1cccnc1)C(=O)O` [Example 22, N-(4-(2-bromo-3-phenylbenzyloxy)-5-chloro-2-(pyridin-3-yl-methyleneoxy)benzyl) isoleucine], the concentration for half-maximal inhibition (IC50) in data set [3] was determined as 4.99e-06 M.

As to `CC(C)OC(=O)[C@H](CO)NCc1cc(Cl)c(OCc2cccc(-c3ccccc3)c2Br)cc1OCc1cccnc1` [Example 6, (S)-isopropyl N-(4-(2-bromo-3-phenylbenzyloxy)-5-chloro-2-(pyridin-3-yl-methyleneoxy)benzyl) serinate dihydrochloride], the IC50 in data set [3] turned out to be 8.23e-08 M.
